Series [1] in a line: Rat PK. The format is in vivo. As for the experimental part:
PK parameters were determined by non-compartmental analysis. Intravenous bolus studies in mouse, rat and dog were performed at 1, 1 and 0.1 mg per kg respectively (Extended Data Table 1).

Series [2] in a line: logD / logP. The format is physicochemical. The note with it: 1-octanol/water, pH 7.4, 1-octanol and water at pH 7.4.

Molecules are shown by their SMILES.

The source of these data is publication PMC11078746 (Nature, 2024).

What is called logD is lipophilicity at a set pH, counting ionised and neutral species. For the molecule `CCc1c(N2CCN(C(=O)c3ncccc3O)CC2)c(=O)n2nc(C3=CCOCC3)nc2n1CC(=O)Nc1ccc(C(F)(F)F)cc1C` [compound 3], the “Rat PK, oral bioavailability (F)” value in series [1] was determined as 20 % F. In addition, in series [2], the pH-dependent lipophilicity (logD) worked out at 2.9.
